From US12662451B2, “Chemical compounds and uses thereof” (GLAXOSMITHKLINE INTELLECTUAL PROPERTY (NO.4) LIMITED, priority 2023, dated 2026)
Structures can show the parent of a compound that is named as a salt.

Columns and labels:
[1] = system: SW48 human colorectal cancer cells (MSI-H cancer cells); test: SW48 cell viability, CellTiter-Glo, 120 hours (Example B); details: Homo sapiens, SW48, 120 h, read-out: SW48 pCC50, SW48 cell viability, 120 hours incubation (converted); Table 2
[2] = molecular target: T1, recombinant full-length WRN protein (1-1432) (Homo sapiens, UniProt Q14191); test: WRN unwinding activity, fluorogenic 384-well assay (Example A); assay type: biochemical; details: WRN unwinding activity, 4 hr; Table 2; read-out: 4 hr UNW pIC50 (converted)
T1 construct: recombinant full-length WRN protein (1-1432)
Summary of the method: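 Read-out is end-point unwinding of a fluorophore/quencher duplex (ex 525, em 598 nm) after 60 min with 200 μM ATP and 12 nM DNA (2× stocks), EDTA stop. Compound first sat 4 h with 200 pM WRN (2× stock) in pH 8.0 Tris buffer; four-parameter fit gives pIC50.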

T1 sequence (Q14191 whole entry): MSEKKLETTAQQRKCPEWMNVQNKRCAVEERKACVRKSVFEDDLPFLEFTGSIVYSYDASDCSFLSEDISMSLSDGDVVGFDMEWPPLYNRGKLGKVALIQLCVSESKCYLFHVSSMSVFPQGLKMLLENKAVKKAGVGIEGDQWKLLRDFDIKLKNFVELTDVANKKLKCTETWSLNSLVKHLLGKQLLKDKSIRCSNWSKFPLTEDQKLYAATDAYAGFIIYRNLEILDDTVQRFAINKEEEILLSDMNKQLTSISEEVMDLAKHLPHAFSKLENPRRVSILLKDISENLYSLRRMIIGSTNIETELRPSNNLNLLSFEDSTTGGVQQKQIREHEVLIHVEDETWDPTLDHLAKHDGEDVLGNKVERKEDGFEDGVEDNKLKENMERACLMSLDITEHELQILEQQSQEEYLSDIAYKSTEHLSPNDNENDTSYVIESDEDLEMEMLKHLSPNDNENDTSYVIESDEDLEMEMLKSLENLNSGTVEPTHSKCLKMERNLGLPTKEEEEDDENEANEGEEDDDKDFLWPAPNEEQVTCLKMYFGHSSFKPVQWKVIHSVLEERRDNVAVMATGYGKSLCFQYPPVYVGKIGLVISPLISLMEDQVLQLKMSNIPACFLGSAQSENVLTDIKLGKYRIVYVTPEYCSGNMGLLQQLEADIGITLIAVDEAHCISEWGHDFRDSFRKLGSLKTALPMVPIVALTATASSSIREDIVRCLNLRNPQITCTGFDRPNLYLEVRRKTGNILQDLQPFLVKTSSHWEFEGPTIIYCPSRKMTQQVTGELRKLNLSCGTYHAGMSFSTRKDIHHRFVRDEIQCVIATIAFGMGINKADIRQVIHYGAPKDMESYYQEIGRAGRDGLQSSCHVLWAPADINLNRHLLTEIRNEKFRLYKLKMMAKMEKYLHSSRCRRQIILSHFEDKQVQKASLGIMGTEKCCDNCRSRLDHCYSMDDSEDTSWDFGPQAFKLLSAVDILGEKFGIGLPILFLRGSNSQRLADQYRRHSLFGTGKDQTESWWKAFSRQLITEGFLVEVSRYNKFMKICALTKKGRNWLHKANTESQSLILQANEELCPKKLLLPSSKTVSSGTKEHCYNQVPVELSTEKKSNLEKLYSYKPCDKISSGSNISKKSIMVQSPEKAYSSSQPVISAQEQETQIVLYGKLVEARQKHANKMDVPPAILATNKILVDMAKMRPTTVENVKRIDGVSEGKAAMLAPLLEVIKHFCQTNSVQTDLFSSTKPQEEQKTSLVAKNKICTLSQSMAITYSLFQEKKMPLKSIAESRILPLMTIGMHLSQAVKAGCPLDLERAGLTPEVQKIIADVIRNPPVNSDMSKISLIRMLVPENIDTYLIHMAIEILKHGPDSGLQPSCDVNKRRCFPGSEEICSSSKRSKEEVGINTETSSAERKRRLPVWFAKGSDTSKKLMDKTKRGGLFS

N#Cc1cc([C@H]2CCC[C@@H](C(=O)Nc3ccc(C(F)(F)F)cc3F)[C@@H]2C(=O)O)ccc1Br (single isomer, unassigned) [Example 230]
CC50 [1]: 7.94 µM | IC50 [2]: 100 nM

Cc1nc2cc(S(=O)(=O)N(C)c3ccc([C@H]4CCC[C@@H](C(=O)Nc5ccc(C(C)C)cc5)[C@H]4C(=O)O)cc3)ccc2n1C (racemic) [Example 75, rac-(1R,2S,6R)-2-((4-isopropylphenyl)carbamoyl)-6-(4-((N,1,2-trimethyl-1H-benzo[d]imidazole)-5-sulfonamido)phenyl)cyclohexane-1-carboxylic acid]
CC50 [1]: 5.01 µM | IC50 [2]: 6.31 nM

Cc1nc2cc(S(=O)(=O)N(C)c3cnc([C@H]4CCC[C@@H](C(=O)Nc5ccc(C(F)(F)F)cc5F)[C@@H]4C(=O)O)cn3)ccc2n1C (single isomer, unassigned) [Example 164]
CC50 [1]: 2.51 µM | IC50 [2]: 1.26 nM

Cc1nc2cc(S(=O)(=O)N(C)c3ccc([C@H]4CCC[C@@H](C(=O)Nc5ccc(C(C)C)cc5)[C@H]4C(=O)O)cc3)ccc2n1C (single isomer, unassigned) [Example 77]
CC50 [1]: 3.98 µM | IC50 [2]: 3.98 nM

CN(c1ccc([C@H]2CCC[C@@H](C(=O)Nc3ccc(C(F)(F)F)cc3F)[C@@H]2C(=O)O)cc1)S(=O)(=O)c1ccc2c(c1)CNCC2 [Example 260, (1R,2R,6S)-2-((2-fluoro-4-(trifluoromethyl)phenyl)carbamoyl)-6-(4-((N-methyl-1,2,3,4-tetrahydroisoquinoline)-7-sulfonamido)phenyl)cyclohexane-1-carboxylic acid hydrochloride]
CC50 [1]: 1.58 µM | IC50 [2]: 2 nM

Cc1nc2ccc(S(=O)(=O)N(C)c3ccc([C@H]4CCC[C@@H](C(=O)Nc5ccc(C(F)(F)F)cc5F)[C@@H]4C(=O)O)cc3)cc2n1C [Example 131, (1R,2R,6S)-2-((2-fluoro-4-(trifluoromethyl)phenyl)carbamoyl)-6-(4-((N,1,2-trimethyl-1H-benzo[d]imidazole)-6-sulfonamido)phenyl)cyclohexane-1-carboxylic acid]
CC50 [1]: 3.98 µM | IC50 [2]: 6.31 nM

CN(c1ccc([C@H]2CCC[C@@H](C(=O)Nc3ccc(C(F)(F)F)cc3F)[C@@H]2C(=O)O)cc1)S(=O)(=O)c1ccc2ocnc2c1 [Example 106, (1R,2R,6S)-2-((2-fluoro-4-(trifluoromethyl)phenyl)carbamoyl)-6-(4-(N-methylbenzo[d]oxazole-5-sulfonamido)phenyl)cyclohexane-1-carboxylic acid]
CC50 [1]: 1.58 µM | IC50 [2]: 3.16 nM

O=C(O)[C@@H]1[C@@H](c2ccc(-c3cncnc3)cc2)CCC[C@H]1C(=O)Nc1ccc(C(F)(F)F)cc1F [Example 6, (1R,2R,6S)-2-((2-fluoro-4-(trifluoromethyl)phenyl)carbamoyl)-6-(4-(pyrimidin-5-yl)phenyl)cyclohexane-1-carboxylic acid]
CC50 [1]: 10 µM | IC50 [2]: 6.31 nM

CCN(c1ccc([C@H]2CCC[C@@H](C(=O)Nc3ccc(C(F)(F)F)cc3F)[C@@H]2C(=O)O)cc1)S(=O)(=O)c1ccc2c(c1)nc(C)n2C [Example 233]
CC50 [1]: 5.01 µM | IC50 [2]: 12.6 nM

O=C(O)[C@@H]1[C@@H](c2ccc(-c3nsc4ccccc34)cc2)CCC[C@H]1C(=O)Nc1ccc(C(F)(F)F)cc1F [Example 36, (1R,2S,6R)-2-(4-(benzo[d]isothiazol-3-yl)phenyl)-6-((2-fluoro-4-(trifluoromethyl)phenyl)carbamoyl)cyclohe xane-1-carboxylic acid]
CC50 [1]: 5.01 µM | IC50 [2]: 631 nM

Cn1nccc1-c1ccc([C@H]2CCC[C@@H](C(=O)Nc3ccc(C(F)(F)F)cc3F)[C@@H]2C(=O)O)cc1 [Example 3, (1R,2R,6S)-2-((2-fluoro-4-(trifluoromethyl)phenyl)carbamoyl)-6-(4-(1-methyl-1H-pyrazol-5-yl)phenyl)cyclohexane-1-carboxylic acid]
CC50 [1]: 10 µM | IC50 [2]: 3.98 nM

N#Cc1cscc1-c1ccc([C@H]2CCC[C@@H](C(=O)Nc3ccc(C(F)(F)F)cc3F)[C@@H]2C(=O)O)cc1 [Example 32, (1R,2S,6R)-2-(4-(4-cyanothiophen-3-yl)phenyl)-6-((2-fluoro-4-(trifluoromethyl)phenyl)carbamoyl)cyclohe xane-1-carboxylic acid]
CC50 [1]: 10 µM | IC50 [2]: 79.4 nM

O=C(O)[C@@H]1[C@@H](c2ccc(C3=CCS(=O)(=O)C3)cc2)CCC[C@H]1C(=O)Nc1ccc(C(F)(F)F)cc1F [Example 58, (1R,2S,6R)-2-(4-(1,1-dioxido-2,5-dihydrothiophen-3-yl)phenyl)-6-((2-fluoro-4-(trifluoromethyl)phenyl)carbamoyl) cyclohexane-1-carboxylic acid]
CC50 [1]: 15.8 µM | IC50 [2]: 31.6 nM

CN(c1ccc([C@H]2CCC[C@@H](C(=O)Nc3ccc(C(F)(F)F)cc3F)[C@@H]2C(=O)O)cc1)S(=O)(=O)c1ccc2nc(O)sc2c1 [Example 102, (1R,2R,6S)-2-((2-fluoro-4-(trifluoromethyl)phenyl)carbamoyl)-6-(4-((2-hydroxy-N-methylbenzo[d]thiazole)-6-sulfonamido)phenyl)cyclohexane-1-carboxylic acid]
CC50 [1]: 10 µM | IC50 [2]: 6.31 nM

CCC[C@H]1CC[C@H](NC(=O)[C@@H]2CCC[C@H](c3ccc(N(C)S(=O)(=O)c4ccc5c(c4)nc(C)n5C)cc3)[C@H]2C(=O)O)CC1 [Example 190, (1R,2R,6S)-2-(((1s,4R)-4-propylcyclohexyl)carbamoyl)-6-(4-((N,1,2-trimethyl-1H-benzo[d]imidazole)-5-sulfonamido)phenyl)cyclohexane-1-carboxylic acid]
CC50 [1]: 3.98 µM | IC50 [2]: 1.58 nM

Nc1ccccc1-c1ccc([C@H]2CCC[C@@H](C(=O)Nc3ccc(C(F)(F)F)cc3F)[C@@H]2C(=O)O)cc1 [Example 24, (1R,2S,6R)-2-(2′-amino-[1,1′-biphenyl]-4-yl)-6-((2-fluoro-4-(trifluoromethyl)phenyl)carbamoyl)cyclohexane-1-carboxylic acid]
CC50 [1]: 15.8 µM | IC50 [2]: 79.4 nM

COC12CC(CO[C@@H]3C[C@H](C(=O)Nc4ccc(C(F)(F)F)cc4F)[C@@H](C(=O)O)[C@H](c4ccc(N(C)S(=O)(=O)c5ccc6c(c5)nc(C)n6C)cc4)C3)(C1)C2 (relative stereo) [Example 331, rel-(1R,2R,4R,6S)-2-((2-fluoro-4-(trifluoromethyl)phenyl)carbamoyl)-4-((3-methoxybicyclo[1.1.1]pentan-1-yl)methoxy)-6-(4-((N,1,2-trimethyl-1H-benzo[d]imidazole)-5-sulfonamido)phenyl)cyclohexane-1-carboxylic acid]
CC50 [1]: 20 µM | IC50 [2]: 251 nM

Cc1oncc1-c1ccc([C@H]2CCC[C@@H](C(=O)Nc3ccc(C(F)(F)F)cc3F)[C@@H]2C(=O)O)cc1 [Example 53, (1R,2R,6S)-2-((2-fluoro-4-(trifluoromethyl)phenyl)carbamoyl)-6-(4-(5-methylisoxazol-4-yl)phenyl)cyclohexane-1-carboxylic acid]
CC50 [1]: 7.94 µM | IC50 [2]: 15.8 nM

O=C(O)[C@@H]1[C@@H](C(=O)Nc2ccc(C(F)(F)F)cc2F)CCC[C@H]1c1ccc(NS(=O)(=O)c2ccc3[nH]cnc3c2)cc1 (single isomer, unassigned) [Example 225]
CC50 [1]: 7.94 µM | IC50 [2]: 0.251 nM

CN(c1ccc([C@H]2CCC[C@@H](C(=O)Nc3ccc(C(F)(F)F)cc3F)[C@@H]2C(=O)O)cc1)S(=O)(=O)c1cccc(C2OCCO2)c1 [Example 118, (1R,2S,6R)-2-(4-((3-(1,3-dioxolan-2-yl)-N-methylphenyl)sulfonamido)phenyl)-6-((2-fluoro-4-(trifluoromethyl)phenyl)carbamoyl)cyclohexane-1-carboxylic acid]
CC50 [1]: 1.26 µM | IC50 [2]: 2 nM

Cc1nc2cc(S(=O)(=O)N(C)c3ccc([C@H]4CCC[C@@H](C(=O)Nc5ccc(C6CCC6)cc5F)[C@@H]4C(=O)O)cc3)ccc2n1C [Example 175, (1R,2R,6S)-2-((4-cyclobutyl-2-fluorophenyl)carbamoyl)-6-(4-((N,1,2-trimethyl-1H-benzo[d]imidazole)-5-sulfonamido)phenyl) cyclohexane-1-carboxylic acid]
CC50 [1]: 1.58 µM | IC50 [2]: 3.16 nM

O=C(O)[C@@H]1[C@@H](c2ccc(-c3cnoc3)cc2)CCC[C@H]1C(=O)Nc1ccc(C(F)(F)F)cc1F [Example 48, (1R,2R,6S)-2-((2-fluoro-4-(trifluoromethyl)phenyl)carbamoyl)-6-(4-(isoxazol-4-yl)phenyl)cyclohexane-1-carboxylic acid]
CC50 [1]: 5.01 µM | IC50 [2]: 15.8 nM

O=C(O)[C@@H]1[C@@H](c2ccc([C@H]3CCC(F)(F)C3)cc2)CCC[C@H]1C(=O)Nc1ccc(C(F)(F)F)cc1F (racemic) [Example 64, 1:1 Mixture of (1R,2S,6R)-2-(4-((S)-3,3-difluorocyclopentyl)phenyl)-6-((2-fluoro-4-(trifluoromethyl)phenyl)carbamoyl)cyclohexane-1-carboxylic acid AND (1R,2S,6R)-2-(4-((R)-3,3-difluorocyclopentyl)phenyl)-6-((2-fluoro-4-(trifluoromethyl)phenyl)carbamoyl)cyclohexane-1-carboxylic acid]
CC50 [1]: 15.8 µM | IC50 [2]: 25.1 nM

Cc1nc2cc(S(=O)(=O)N(C)c3ccc([C@@H]4C[C@@]5(CCCO5)C[C@H](C(=O)Nc5ccc(C(F)(F)F)cc5F)[C@H]4C(=O)O)cc3)ccc2n1C (stereo in doubt) [Example 387, rel-(5R,7R,8R,9S)-7-((2-fluoro-4-(trifluoromethyl)phenyl)carbamoyl)-9-(4-((N,1,2-trimethyl-1H-benzo[d]imidazole)-5-sulfonamido)phenyl)-1-oxaspiro[4.5]decane-8-carboxylic acid]
CC50 [1]: 10 µM | IC50 [2]: 63.1 nM
